Reference: patent US20070149505A1, “Method of Inhibiting Adhesion Formation” (SmithKline Beecham Corporation, priority 2001, published 2007)
“And” between values parts separate entries of the source, which are not always exact repeats. Equal entries are not always repeated.

Tested on: uterine horn adhesions
Assay: rabbit uterine horn model of adhesion formation, oral + local (gel) COMPOUND 1 study
Type: in vivo, New Zealand White rabbits
Set-up: key to tenacity of the adhesions score (in parentheses), Right Horn, Bowel / tenacity of the adhesions score (in parentheses), Right Horn, Itself / tenacity of the adhesions score (in parentheses), Left Horn, Itself / tenacity of the adhesions score (in parentheses), Right Horn, Left / tenacity of the adhesions score (in parentheses), Left Horn, Bowel / tenacity of the adhesions score (in parentheses), Left Horn, Right / tenacity of the adhesions score (in parentheses), Right Horn, Bladder / tenacity of the adhesions score (in parentheses), Left Horn, Bladder: 0=No Adhesions; 1=mild, easily dissectable adhesions; 2=moderate adhesions; non-dissectable, does not tear the organ; 3=dense adhesions; non-dissectable, tears organ when removed; key to Overall score: overall adhesion score; 1 = mild, 1.5+ slightly tougher/more extensive
Details: for Overall, (group summary): group value ± spread, overall scores analyzed by rank order analysis
Method: The compounds of the instant invention are tested in known models of adhesion formation. These test systems include a rabbit sidewall model of adhesion formation as described in Rogers, et al., J. Invest. Surg., 9:388-391 (1996) and Rodgers, et al., […], 69(3):403-408 (1998); a rat model for adhesion formation as described in Harris, et al., Surgery, 117:663-669 (1995); and a rabbit animal model used to examine laparoscopic adhesion prevention. The rabbit uterine horn model may also be used to test the use of the instant vitronectin inhibiting compounds as inhibitors of adhesion formation. The experimental details and results using this model are detailed below.
Animals: New Zealand White rabbits, 2.4-2.7 kg, were purchased and quarantined for at least 2 days prior to use. The rabbits were randomized into appropriate control and treatment groups (see experimental designs below). The rabbits were housed on a 12:12 light:dark cycle with food and water available ad libitum. Each treatment group in all studies contained 8-10 animals.
Adhesion Model: The animals that received COMPOUND 1 or vehicle according to the experimental design (below). The rabbits that received placebo at surgery received two doses of vehicle orally. Rabbits were anesthetized with a mixture of 55 mg/kg ketamine hydrochloride and 5 mg/kg Rompum intramuscularly. Following preparation for sterile surgery, a midline laparotomy was performed. The uterine horns were exteriorized and traumatized by abrasion of the serosal surface with gauze until punctate bleeding developed. Ischemia of both uterine horns was induced by removal of the collateral blood supply. The remaining blood supply to the uterine horns was the ascending branches of the utero-vaginal arterial supply of the myometrium. The midline muscle and skin incision were closed.
After 7 or 14 days, the rabbits were terminated and adhesions were scored on a site and rabbit basis. Specifically, the percentage of the area of the horns adherent to various organs was determined. In addition, the tenacity of the adhesions was scored using the following system:
1=mild, easily dissectable adhesions
3=dense adhesions; non-dissectable, tears organ when removed
An overall score which took into account all of the above data was given to each rabbit. The following scoring system was used:
0.5+ Light, filmy pelvic adhesions involving only one organ, typically only 1 or 2 small adhesions
1.0+ Light, filmy adhesions, not extensive although slightly more extensive than 0.5
1.5+ Adhesions slightly tougher and more extensive than a 1 rating
2.0+ Tougher adhesions, a little more extensive, uterine horns usually have adhesions to both bowel and bladder
2.5+ Same as 2, except the adhesions are usually not filmy at any site and more extensive
3.0+ Tougher adhesions than 2, more extensive, both horns are attached to the bowel and bladder, some movement of the uterus possible
3.5+ Same as 3, but adhesions slightly more extensive and tougher
4.0+ Severe adhesions, both horns attached to the bowel and bladder, unable to move the uterus without tearing the adhesions
The rabbits were scored by two independent observers that were blinded to the prior treatment of the animal. If there was disagreement as to the score to be assigned to an individual animal, the higher score was given.
Statistical Analysis: The tenacity and overall scores were analyzed by rank order analysis and analysis of variance on the ranks. The percentage area of the horns involved to the various organs were compared by Student's t test.
[…] received two loading doses of 60 mg/kg COMPOUND 1 orally prior to surgery. At the end of the procedure, the animals received either nothing (surgical control), or 12 ml of placebo (10% CMC) or one of two doses (1 mg/ml or 0.1 mg/ml) of COMPOUND 1 at the site of surgical injury.
Oral+local study: Two loading doses of COMPOUND 1 (60 mg/kg, po) were administered orally prior to surgery. […]

[1] = 1 mg/ml COMPOUND 1, 1 Week Necropsy Time, group mean ± spread
[2] = 1 mg/ml COMPOUND 1, 1 Week Necropsy Time, individual rabbit
[3] = 1 mg/ml COMPOUND 1, 1 Week Necropsy Time, individual rabbit, dash = site adhesion free
[4] = 1 mg/ml COMPOUND 1, 2 Week Necropsy Time, group mean ± spread
[5] = 1 mg/ml COMPOUND 1, 2 Week Necropsy Time, individual rabbit
[6] = 1 mg/ml COMPOUND 1, 2 Week Necropsy Time, individual rabbit, dash = site adhesion free
[7] = 1 mg/ml COMPOUND 1, listed after Control/Placebo 1 Week
[8] = 1 mg/ml COMPOUND 1, listed after Control/Placebo 2 Weeks

## O=C(O)C[C@@H]1Cc2ccc(OCCCNc3ccccn3)cc2CN(CC(F)(F)F)C1=O [COMPOUND 1, (S)-3-oxo-8-[3-(pyridin-2-ylamino)-1-propyloxy]-2-(2,2,2-trifluoroethyl)-2,3,4,5-tetrahydro-1H-2-benzazepine-4-acetic acid]
0.1 mg/ml COMPOUND 1, listed after Control/Placebo 2 Weeks
  % Sites Adhesion Free: 38.75%
[1]
  % Horn Involved, Left Horn, Bladder: 0.0 ± 0.0%
  % Horn Involved, Left Horn, Bowel: 18.0 ± 4.2%
  % Horn Involved, Left Horn, Itself: 18.0 ± 4.7%
  % Horn Involved, Left Horn, Right: 15.0 ± 4.0%
  % Horn Involved, Right Horn, Bladder: 3.0 ± 1.5%
  % Horn Involved, Right Horn, Bowel: 19.0 ± 3.8%
  % Horn Involved, Right Horn, Itself: 10.0 ± 4.2%
  % Horn Involved, Right Horn, Left: 15.0 ± 4.0%
1 mg/ml COMPOUND 1, 1 Week Necropsy Time
  Overall, (group summary): 21.3 ± 3.9
[2]
  Overall score: 1.0 (3×) and 0.5 and 1.5 (5×) and 2.0
  tenacity of the adhesions score (in parentheses), Left Horn, Bowel: 1
  tenacity of the adhesions score (in parentheses), Left Horn, Itself: 1
  tenacity of the adhesions score (in parentheses), Left Horn, Right: 1 (6×) and 2
  tenacity of the adhesions score (in parentheses), Right Horn, Bladder: 1
  tenacity of the adhesions score (in parentheses), Right Horn, Bowel: 1
  tenacity of the adhesions score (in parentheses), Right Horn, Itself: 1
  tenacity of the adhesions score (in parentheses), Right Horn, Left: 1 (6×) and 2
[3]
  % Horn Involved, Left Horn, Bowel: 30% (4×) and 20% (3×)
  % Horn Involved, Left Horn, Itself: 20% (2×) and 30% (3×) and 10% and 40%
  % Horn Involved, Left Horn, Right: 20% (2×) and 10% (2×) and 30% (3×)
  % Horn Involved, Right Horn, Bladder: 10%
  % Horn Involved, Right Horn, Bowel: 30% (4×) and 10% and 20% (3×)
  % Horn Involved, Right Horn, Itself: 20% (2×) and 10% (2×) and 40%
  % Horn Involved, Right Horn, Left: 20% (2×) and 10% (2×) and 30% (3×)
[4]
  % Horn Involved, Left Horn, Bladder: 4.0 ± 2.7%
  % Horn Involved, Left Horn, Bowel: 17.0 ± 5.2%
  % Horn Involved, Left Horn, Itself: 18.0 ± 4.2%
  % Horn Involved, Left Horn, Right: 5.0 ± 3.4%
  % Horn Involved, Right Horn, Bladder: 4.0 ± 2.2%
  % Horn Involved, Right Horn, Bowel: 13.0 ± 4.0%
  % Horn Involved, Right Horn, Itself: 13.0 ± 5.0%
  % Horn Involved, Right Horn, Left: 5.0 ± 3.4%
1 mg/ml COMPOUND 1, 2 Week Necropsy Time
  Overall, (group summary): 21.2 ± 5.5
[5]
  Overall score: 1.0 (5×) and 2.5 and 1.5 (2×) and 0.5 and 2.0
  tenacity of the adhesions score (in parentheses), Left Horn, Bladder: 2 and 1
  tenacity of the adhesions score (in parentheses), Left Horn, Bowel: 2 (2×) and 1 (4×)
  tenacity of the adhesions score (in parentheses), Left Horn, Itself: 1 (6×) and 2 (2×)
  tenacity of the adhesions score (in parentheses), Left Horn, Right: 2 and 1
  tenacity of the adhesions score (in parentheses), Right Horn, Bladder: 1
  tenacity of the adhesions score (in parentheses), Right Horn, Bowel: 1 (6×) and 2
  tenacity of the adhesions score (in parentheses), Right Horn, Itself: 1 (4×) and 2
  tenacity of the adhesions score (in parentheses), Right Horn, Left: 2 and 1
[6]
  % Horn Involved, Left Horn, Bladder: 20%
  % Horn Involved, Left Horn, Bowel: 30% (4×) and 10% and 40%
  % Horn Involved, Left Horn, Itself: 20% (3×) and 30% (2×) and 10% (2×) and 40%
  % Horn Involved, Left Horn, Right: 30% and 20%
  % Horn Involved, Right Horn, Bladder: 10% (2×) and 20%
  % Horn Involved, Right Horn, Bowel: 10% (4×) and 30% (3×)
  % Horn Involved, Right Horn, Itself: 20% and 30% (2×) and 10% and 40%
  % Horn Involved, Right Horn, Left: 30% and 20%
[7]
  # Sites Adhesion Free: 36
  % Sites Adhesion Free: 45.0%
[8]
  # Sites Adhesion Free: 45
  % Sites Adhesion Free: 56.25%
